Consider 2 compounds from publication PMC9044946 (Journal of Virology, 2022).

The conditions of experiment [1]: orally administered three times a day; cited from earlier work.
Experiment [2] deals with S-mediated cell-to-cell fusion. Type of experiment: cell-based. The following applies: acceptor cells ACE2 plus TMPRSS2, camostat 120 μM.
For experiment [3], the system named is TMPRSS2-induced production of S2′. The format is cell-based. The following applies: acceptor cells ACE2 and TMPRSS2, 120 μM.

Where a name gives a salt, the structure may show the parent alone.

`CN(C)C(=O)COC(=O)Cc1ccc(OC(=O)c2ccc(NC(=N)N)cc2)cc1` [camostat mesylate]: in experiment [1], the “Effect on COVID-19 symptoms” value is listed as “did not ameliorate COVID-19 symptoms”.
`CN(C)C(=O)COC(=O)Cc1ccc(OC(=O)c2ccc(NC(=N)N)cc2)cc1` [camostat]: in experiment [2], the “Effect on TMPRSS2-enhanced fusion with μAS1/S2” value was “largely attenuated” and the “Effect on TMPRSS2-reduced fusion with WT S” value is listed as “completely restored”. Further, in experiment [3], the “Effect on enhanced TMPRSS2-induced production of S2′ with WT S” value is given as “eliminated”.
